These results are taken from patent US7087635B2, “3-substituted oxindole β3 agonists” (Eli Lilly and Company, priority 2001, dated 2006).

By Emax is commonly meant the maximal effect, on the per cent scale that the assay sets.

The target in the assay is T1, human β3 adrenergic receptor (Homo sapiens, UniProt P13945).
T1 construct: expressed in transfected cells; host or cells: DXB-11 Chinese hamster ovary (CHO) cell line, stably transfected, phd expression vector
T1 sequence (P13945 whole entry): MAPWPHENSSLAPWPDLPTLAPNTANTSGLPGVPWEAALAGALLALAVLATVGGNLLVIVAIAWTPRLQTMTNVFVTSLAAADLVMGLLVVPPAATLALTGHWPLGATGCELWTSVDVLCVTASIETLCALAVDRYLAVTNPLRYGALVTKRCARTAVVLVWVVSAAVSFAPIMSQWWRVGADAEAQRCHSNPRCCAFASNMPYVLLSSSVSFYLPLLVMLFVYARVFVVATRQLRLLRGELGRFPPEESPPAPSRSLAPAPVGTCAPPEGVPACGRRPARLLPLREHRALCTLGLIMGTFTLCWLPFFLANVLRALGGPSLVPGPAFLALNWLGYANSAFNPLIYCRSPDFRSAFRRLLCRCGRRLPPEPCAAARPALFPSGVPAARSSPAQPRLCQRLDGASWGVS
The assay is described as follows: whole cell receptor coupled c-AMP assay (Emax relative to isoproterenol). Type of assay: cell-based. The note with it: % intrinsic activity relative to isoproterenol maximal response; transfected CHO cells. The source says: The genes encoding the human β1-adrenergic receptor (Frielle et al., Proc. Natl. Acad. Sci., 84:7920–7924, 1987), the human β2-adrenergic receptor (Kobika el al., Proc. Natl. Acad. Sci., 84:46–50, 1987, Emorine et al., Proc. Natl. Acad. Sci., 84:6995–6999, 1987) and the human β3 adrenergic receptor (Granneman et al., Molecular Pharmacology, 44(2):264–70, 1993) are individually subcloned into a phd expression vector (Grinnell et al., Bio/Technology, 5:1189–1192, 1987) and transfected into the DXB-11 Chinese hamster ovary (CHO) cell line by calcium phosphate precipitation methodology. The stably transfected cells are grown to 95% confluency in 95% Dulbecco's modified Eagles Medium (DMEM), 5% fetal bovine serum and 0.01% proline. Media is removed and the cells are washed with phosphate buffered (pH 7.4) saline (without magnesium and calcium). Cells are then lifted using an enzyme free cell dissociation solution (Specialty Media, Lavallette, N.J.) and pelleted by centrifugation.
Cells from each of the above cell lines are resuspended and added (20,000/well) to a 96-well plate. Cells are incubated at 37° C. with representative compounds of the invention for 20 minutes in buffer (Hank's balanced salt solution, 10 mM HEPES, 0.1% BSA, 1 mM L-ascorbic acid, 0.2% dimethyl sulfoxide, 1 mM 3-isobutyl-1-methylxanthine, pH 7.4). After halting the incubation with quench buffer (50 mM Na Acetate, 0.25% Triton X-100, pH 5.8), the c-AMP level is quantified by scintillation proximity assay (SPA) using a modification of the commercially available c-AMP kit (Amersham, Arlington Heights, Ill.) with rabbit anti-cAMP antibody (ICN Biomedicals, Aurora, Ohio) for the kit.
Sigmoidal dose response curves, from the whole cell receptor coupled c-AMP assay are fit to a four parameter logistic equation using non linear regression: y=(a–d)/(1+(Dose/c)^b)+d where a and d are responses at zero and maximal dose, b is the slope factor and c is the EC50 as previously described (DeLean et al., Am. J. Physiol., 235, E97–E102, 1978). EC50 is assessed as the concentration producing 50% of the maximum response to each agonist.
Isoproterenol is accepted in the art as a non-selective β3 agonist and is widely used as a comparator in evaluating the activity of compounds. See Trends in Pharm. Sci., 15:3, 1994. The % intrinsic activity (Emax) of representative compounds of the invention is assessed relative to isoproterenol by the compound's maximal response divided by the isoproterenol maximal response times 100.
`C[C@H](Cn1ccc2c(OCC(=O)O)cccc21)NC[C@H](O)COc1cccc2c1C1(CCCC1)C(=O)N2` [Example 68] yielded an Emax of 73.3%.

In turn, `CC(C)(Cc1c[nH]c2c(Oc3ccc(-c4nn[nH]n4)cn3)cccc12)NC[C@H](O)COc1cccc2c1C1(CCCC1)C(=O)N2` [Example 74] came in with an Emax of 78.1%.

The compound `CC(C)(Cc1c[nH]c2c(C(=O)O)cccc12)NC[C@H](O)COc1cccc2c1C1(CCCC1)C(=O)N2` [Example 71] returned an Emax of 59.5%.

In turn, `CC(C)(Cc1c[nH]c2cccc(C(=O)O)c12)NC[C@H](O)COc1cccc2c1C1(CCCC1)C(=O)N2` [Example 69] gave an Emax of 37.9%.

The compound `CC(C)(Cc1c[nH]c2c(CCC(=O)O)cccc12)NC[C@H](O)COc1cccc2c1C1(CCCC1)C(=O)N2` [Example 80] yielded an Emax of 77.2%.

`CC(C)(Cc1c[nH]c2c(CCc3nnn[nH]3)cccc12)NC[C@H](O)COc1cccc2c1C1(CCCC1)C(=O)N2` [Example 81] had an Emax of 77.4%.

In turn, `CC(C)(Cc1c[nH]c2c(-c3ccc(C(=O)O)s3)cccc12)NC[C@H](O)COc1cccc2c1C1(CCCC1)C(=O)N2` [Example 79] returned an Emax of 75.1%.

As to `CC(C)(Cc1c[nH]c2c(Oc3ccc(C(N)=O)cn3)cccc12)NC[C@H](O)COc1cccc2c1C1(CCCC1)C(=O)N2` [Example 75], the Emax is 80.1%.

`CC(C)(Cc1c[nH]c2c(Oc3ncccc3-c3nn[nH]n3)cccc12)NC[C@H](O)COc1cccc2c1C1(CCCC1)C(=O)N2` [Example 76] gave an Emax of 80.1%.

`CC(C)(Cc1c[nH]c2cccc(C(N)=O)c12)NC[C@H](O)COc1cccc2c1C1(CCCC1)C(=O)N2` [Example 85] yielded an Emax of 48.3%.

Turning to `CC(C)(Cc1c[nH]c2cc(CCc3nnn[nH]3)ccc12)NC[C@H](O)COc1cccc2c1C1(CCCC1)C(=O)N2` [Example 82], the Emax is 72.7%.

For the compound `CC(C)(Cc1c[nH]c2c(-c3cccc(C(=O)O)c3)cccc12)NC[C@H](O)COc1cccc2c1C1(CCCC1)C(=O)N2` [Example 78], the Emax turned out to be 93.5%.

Take `CC(C)(Cc1c[nH]c2ccc(C(=O)O)cc12)NC[C@H](O)COc1cccc2c1C1(CCCC1)C(=O)N2` [Example 70]: the Emax turned out to be 53.5%.

The compound `CC(C)(Cc1c[nH]c2c(CCc3cnccn3)cccc12)NC[C@H](O)COc1cccc2c1C1(CCCC1)C(=O)N2` [Example 83] returned an Emax of 79.3%.

For the compound `CC(C)(Cc1c[nH]c2c(Oc3ccc(C(=O)O)cn3)cccc12)NC[C@H](O)COc1cccc2c1C1(CCCC1)C(=O)N2` [Example 73], the Emax is 82.4%.

The compound `CC(C)(Cc1c[nH]c2cc(C(=O)O)ccc12)NC[C@H](O)COc1cccc2c1C1(CCCC1)C(=O)N2` [Example 72] came in with an Emax of 56.2%.

`CC(C)(Cc1c[nH]c2c(OCC3=NCCS3)cccc12)NC[C@H](O)COc1cccc2c1C1(CCCC1)C(=O)N2` [Example 66] came in with an Emax of 84.9%.

On to `CC(C)(Cc1c[nH]c2c(CCc3ccc(S(N)(=O)=O)cc3)cccc12)NC[C@H](O)COc1cccc2c1C1(CCCC1)C(=O)N2` [Example 84], for which the Emax is 78.5%.
